Measured values published in paper PMC5739597, “Discovery and evaluation of triple inhibitors of VEGFR-2, TIE-2 and EphB4 as anti-angiogenic and anti-cancer agents” (Oncotarget, 2017).
Where “and” joins values, the source holds several entries; their conditions need not be identical. Identical values can stand only once.

Assays:
TIE-2 = TIE-2 (Homo sapiens, UniProt Q02763); experiment: ADP-Glo in vitro RTK inhibition assay, TIE-2; format: biochemical; details: ATP 50 μM
Method: (§1) In order to validate the direct effect of title compounds on VEGFR-2, Tie-2, and EphB4 kinases, we performed in vitro assay using the ADP-Glo Kinase Assay Kit (Promega, Wisconsin, USA).
(§2) The kinase assay was performed in a reaction mixture of final volume of 10 μL. […] The plate was incubated at 30°C for 1 h. After the plate was cooled at room temperature for 5 min, 5 μL of ADP-Glo reagent was added into each well to stop the reaction and consume the remaining […] within 40 min. At the end, 10 μL of kinase detection reagent was added into the well and incubated for 30 min to produce a luminescence signal. […] The assay plate was incubated at 30°C for 4 h. After the plate was cooled at room temperature for 5 min, 5 μL of ADP-Glo reagent was added into each well to stop the reaction and consume the remaining […] within 1 h. At the end, 10 μL of kinase detection reagent was added into each well and incubated for 30 min to produce a luminescence signal. The luminescence was read by VICTOR-X multi-label plate reader.

VEGFR-2 [1] = molecular target: T1, VEGFR-2 (Homo sapiens, UniProt P35968); experiment: ADP-Glo in vitro RTK inhibition assay, VEGFR-2; format: biochemical; details: ATP 50 μM
Method: as §1, §2

EphB4 = molecular target: T2, EphB4 (Homo sapiens, UniProt P54760); experiment: ADP-Glo in vitro RTK inhibition assay, EphB4; format: biochemical; details: ATP 50 μM
T2 sequence (P54760 16-987): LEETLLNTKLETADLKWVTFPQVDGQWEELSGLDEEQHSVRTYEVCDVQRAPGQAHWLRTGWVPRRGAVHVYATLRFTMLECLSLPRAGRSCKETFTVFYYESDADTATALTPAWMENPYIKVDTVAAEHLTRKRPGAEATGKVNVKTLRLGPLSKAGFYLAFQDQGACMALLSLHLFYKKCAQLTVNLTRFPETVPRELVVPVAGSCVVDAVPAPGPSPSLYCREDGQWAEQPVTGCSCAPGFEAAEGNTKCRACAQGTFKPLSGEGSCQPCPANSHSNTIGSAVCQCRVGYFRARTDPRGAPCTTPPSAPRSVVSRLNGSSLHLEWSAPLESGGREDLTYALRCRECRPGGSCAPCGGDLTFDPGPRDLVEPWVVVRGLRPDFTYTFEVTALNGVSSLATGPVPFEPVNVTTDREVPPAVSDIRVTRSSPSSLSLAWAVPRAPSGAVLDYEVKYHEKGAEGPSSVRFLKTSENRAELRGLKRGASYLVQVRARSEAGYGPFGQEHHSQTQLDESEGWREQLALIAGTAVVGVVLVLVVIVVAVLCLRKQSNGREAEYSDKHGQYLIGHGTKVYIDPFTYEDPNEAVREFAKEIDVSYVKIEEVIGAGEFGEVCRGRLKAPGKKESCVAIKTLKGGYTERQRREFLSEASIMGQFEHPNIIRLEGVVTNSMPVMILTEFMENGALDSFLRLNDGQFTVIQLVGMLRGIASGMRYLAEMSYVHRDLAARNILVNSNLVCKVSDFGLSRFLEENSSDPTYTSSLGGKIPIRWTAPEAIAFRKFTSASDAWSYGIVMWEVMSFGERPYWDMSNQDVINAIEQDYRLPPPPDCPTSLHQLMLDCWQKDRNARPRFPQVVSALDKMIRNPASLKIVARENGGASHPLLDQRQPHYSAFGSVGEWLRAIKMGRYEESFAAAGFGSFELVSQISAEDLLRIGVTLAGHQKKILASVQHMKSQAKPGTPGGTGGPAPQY
Method: as §1, §2

EA.hy926 = experiment: Human endothelial cell (EA.hy926) viability assay, CCK-8; format: cell-based; details: Homo sapiens, EA.hy 926, 24 h, CCK-8, 24 h treatment; read-out: Inhibition of human endothelial cell viability, EA.hy926 IC50
Method: In order to determine the anti-angiogenic effect of these multi-target inhibitors, we evaluated their effect on HECs (EA.hy926) viability using cell counting kit-8 (CCK-8) method.
The viability of HECs (EA.hy926) was assessed using the cell counting kit-8 (CCK-8, Sigma, USA) assay according to the manufacturer's instruction. […] After incubation at 37°C for 48 h, the cells were treated with tested compounds at various concentrations for 24 h. Subsequently, premixed CCK-8 and medium (10 μL) were added into the 96-well plates to monitor cell viability and were incubated at 37°C for 2 h. The number of viable cells was assessed by measurement of absorbance at 450 nm by a microplate reader. The viability rate was calculated as experimental OD value/control OD value.

MCF-7 xenograft = experiment: In vivo MCF-7 xenograft mice model; details: ig, 40 mg/kg daily, 21 days
Method: Six-week old female BALB/c mice were purchased from Shanghai Laboratory Animal center of the Chinese Academy of Sciences and housed under aseptic and ventilated condition. The mice were inoculated by subcutaneous injection with MCF-7 cancer cells suspended in 5% saline. Tumor volume and weight were measured on alternate days. Body weights were monitored as an indicator of toxicity. […] Treatment started from the next day and continued for 21 days. All mice were killed at the end of the experiment, and subcutaneous tumors were removed and weighted.

VEGFR-2 [2] = molecular target: T1, VEGFR-2; experiment: VEGFR-2/cell membrane chromatography (CMC) affinity evaluation; format: binding; details: flow rate 0.6 mL/min, 37°C, 5 mM PBS pH 7.4, 270 nm
Method: In previous studies, artificial cultures highly expressing VEGFR-2 on HEK293 cell lines were constructed. […] Chromatographic conditions: 10 mm×2.0 mm; flow rate0.6 mL/min; column temperature 37°C; mobile phase 5 mM PBS, pH 7.4; detection wavelength 270 nm.
The VEGFR-2 cell membrane stationary phase was prepared as previous reported. Aqueous ammonium acetate buffer solution (pH 7.4, 5 mM) was pumped at a flow rate of 0.2 mL/min as the mobile phase after VEGFR-2/CMC column was loaded onto the chromatography system at the temperature of 37°C. […] The mobile phase was 5.0 mM phosphate burred saline with a 0.6 mL/min flow rate at a column temperature of 37°C. The detected wavelength was 270 nm. The test compound was injected into the VEGFR-2/CMC column and their retention characteristics were identified to evaluate their affinity with VEGFR-2.

T1 sequence (P35968 20-1356): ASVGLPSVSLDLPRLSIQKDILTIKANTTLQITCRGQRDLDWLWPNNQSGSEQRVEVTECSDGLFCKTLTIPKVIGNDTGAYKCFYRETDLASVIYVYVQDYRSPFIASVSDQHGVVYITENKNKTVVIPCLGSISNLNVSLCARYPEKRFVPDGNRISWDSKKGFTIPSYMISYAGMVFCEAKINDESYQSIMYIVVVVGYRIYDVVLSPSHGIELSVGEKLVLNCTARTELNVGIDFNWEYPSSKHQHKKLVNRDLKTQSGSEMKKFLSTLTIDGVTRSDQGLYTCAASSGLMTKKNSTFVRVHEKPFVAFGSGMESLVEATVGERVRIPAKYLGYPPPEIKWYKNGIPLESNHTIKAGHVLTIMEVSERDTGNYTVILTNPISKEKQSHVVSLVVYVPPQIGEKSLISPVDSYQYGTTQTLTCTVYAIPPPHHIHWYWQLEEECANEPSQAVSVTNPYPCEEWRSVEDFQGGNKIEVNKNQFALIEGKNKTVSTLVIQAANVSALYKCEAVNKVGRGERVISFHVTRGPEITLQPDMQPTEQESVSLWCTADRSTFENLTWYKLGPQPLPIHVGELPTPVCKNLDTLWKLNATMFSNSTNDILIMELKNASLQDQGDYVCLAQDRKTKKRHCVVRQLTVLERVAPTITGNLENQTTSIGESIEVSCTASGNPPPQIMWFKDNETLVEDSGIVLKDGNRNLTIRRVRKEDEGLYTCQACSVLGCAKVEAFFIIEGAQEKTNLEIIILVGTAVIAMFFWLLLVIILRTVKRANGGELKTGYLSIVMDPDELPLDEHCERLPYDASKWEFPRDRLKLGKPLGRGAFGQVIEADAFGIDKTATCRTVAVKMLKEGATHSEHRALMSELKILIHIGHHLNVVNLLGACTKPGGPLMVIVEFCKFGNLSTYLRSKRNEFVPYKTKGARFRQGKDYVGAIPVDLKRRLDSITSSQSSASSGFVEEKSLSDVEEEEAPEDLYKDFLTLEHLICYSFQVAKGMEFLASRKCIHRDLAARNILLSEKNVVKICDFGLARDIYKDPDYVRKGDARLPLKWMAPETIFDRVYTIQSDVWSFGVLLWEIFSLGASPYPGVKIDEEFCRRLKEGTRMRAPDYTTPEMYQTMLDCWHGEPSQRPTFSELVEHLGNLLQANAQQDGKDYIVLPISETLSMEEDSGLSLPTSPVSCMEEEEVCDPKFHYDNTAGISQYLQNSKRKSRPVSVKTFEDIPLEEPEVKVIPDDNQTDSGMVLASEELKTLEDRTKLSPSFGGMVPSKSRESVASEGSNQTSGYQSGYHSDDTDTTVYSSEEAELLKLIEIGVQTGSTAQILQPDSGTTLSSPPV
Chain of TIE-2 (Q02763 23-1124): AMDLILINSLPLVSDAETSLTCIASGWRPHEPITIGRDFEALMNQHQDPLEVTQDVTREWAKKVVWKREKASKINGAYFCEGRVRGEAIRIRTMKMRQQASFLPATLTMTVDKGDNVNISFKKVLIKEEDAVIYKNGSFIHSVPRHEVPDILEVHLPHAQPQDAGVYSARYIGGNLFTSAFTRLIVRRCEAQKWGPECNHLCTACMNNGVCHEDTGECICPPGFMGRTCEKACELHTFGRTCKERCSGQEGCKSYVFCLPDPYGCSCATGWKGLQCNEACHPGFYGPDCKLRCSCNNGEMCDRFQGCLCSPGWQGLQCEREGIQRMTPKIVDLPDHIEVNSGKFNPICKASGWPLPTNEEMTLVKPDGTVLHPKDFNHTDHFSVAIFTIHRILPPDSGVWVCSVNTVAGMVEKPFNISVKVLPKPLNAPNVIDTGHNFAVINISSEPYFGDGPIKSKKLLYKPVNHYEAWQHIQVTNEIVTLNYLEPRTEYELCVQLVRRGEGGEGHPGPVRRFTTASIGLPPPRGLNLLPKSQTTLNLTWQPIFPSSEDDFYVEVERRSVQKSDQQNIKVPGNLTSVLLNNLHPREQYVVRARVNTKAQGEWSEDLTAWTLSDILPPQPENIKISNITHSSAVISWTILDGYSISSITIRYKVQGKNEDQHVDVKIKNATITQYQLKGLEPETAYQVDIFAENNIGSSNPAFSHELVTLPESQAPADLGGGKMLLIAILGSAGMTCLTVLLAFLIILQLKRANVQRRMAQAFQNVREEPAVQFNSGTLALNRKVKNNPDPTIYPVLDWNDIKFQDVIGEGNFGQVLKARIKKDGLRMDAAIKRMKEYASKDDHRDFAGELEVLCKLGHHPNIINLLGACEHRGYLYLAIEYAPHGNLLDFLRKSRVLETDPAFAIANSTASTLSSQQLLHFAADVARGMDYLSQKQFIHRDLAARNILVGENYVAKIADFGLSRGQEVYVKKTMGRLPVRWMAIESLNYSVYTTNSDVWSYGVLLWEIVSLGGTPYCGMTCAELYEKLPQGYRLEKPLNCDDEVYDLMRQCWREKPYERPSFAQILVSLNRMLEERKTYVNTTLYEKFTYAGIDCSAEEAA

| IC50 (TIE-2) [nM] | IC50 (VEGFR-2 [1]) [nM] | IC50 (EphB4) [nM] | melting point [°C] | Retention time on VEGFR-2/cell membrane stationary phase column (VEGFR-2 [2]) | SMILES | IC50 (EA.hy926) [nM] | Final body weight (MCF-7 xenograft) [g] | Tumor growth inhibition (MCF-7 xenograft) [%] | Final tumor weight (MCF-7 xenograft; control 0.848±0.5) [g] |
| --- | --- | --- | --- | --- | --- | --- | --- | --- | --- |
| 25.7 | 20.6 | 20 | 197 to 199 | – | FC(F)(F)c1cc(Br)cc(NC(=S)Nc2ccc(-c3cccnc3)cc2)c1 [DATU1, N-[3-bromo-5-(trifluoromethyl)phenyl]-N’-(4-pyridin-3-ylphenyl)thiourea] | – | – | – | – |
| 64.2 | > 500 | > 500 | 144 to 145 | – | FC(F)(F)Oc1cc(Br)ccc1NC(=S)Nc1ccc(-c2cccnc2)cc1 [DATU2, N-[4-bromo-2-(trifluoromethoxy)phenyl]-N’-(4-pyridin-3-ylphenyl)thiourea] | 89900 | – | – | – |
| 20 | > 500 | 21.8 | 162 to 163 | – | FC(F)(F)Oc1ccc(NC(=S)Nc2ccc(-c3cccnc3)cc2)c(Br)c1 [DATU3, N-[2-bromo-4-(trifluoromethoxy)phenyl]-N’-(4-pyridin-3-ylphenyl)thiourea] | 122000 | – | – | – |
| > 500 | > 500 | 18.7 | 154 to 155 | – | FC(F)(F)Oc1ccc(Br)cc1NC(=S)Nc1ccc(-c2cccnc2)cc1 [DATU4, N-[5-bromo-2-(trifluoromethoxy)phenyl]-N’-(4-pyridin-3-ylphenyl)thiourea] | 44800 | – | – | – |
| > 500 | > 500 | 54.2 | 125 to 126 | – | FC(F)(F)Oc1ccc(Br)c(NC(=S)Nc2ccc(-c3cccnc3)cc2)c1 [DATU5, N-[2-bromo-5-(trifluoromethoxy)phenyl]-N’-(4-pyridin-3-ylphenyl)thiourea] | 246000 | – | – | – |
| 66.5 | 23.5 | 3.86 | 156 to 157 | – | S=C(Nc1ccc(-c2cccnc2)cc1)Nc1ccc(Cl)cc1Cl [DATU6, N-(2,4-dichlorophenyl)-N’-(4-pyridin-3-ylphenyl)thiourea] | 24400 | – | – | – |
| 48.4 | 45.2 | 10 | 139 to 140 | – | Fc1ccc(NC(=S)Nc2ccc(-c3cccnc3)cc2)cc1F [DATU7, N-(3,4-difluorophenyl)-N’-(4-pyridin-3-ylphenyl)thiourea] | 96400 | – | – | – |
| 9.4 | 354 | > 500 | 173 to 175 | – | S=C(Nc1ccc(-c2cccnc2)cc1)Nc1ccc(Cl)c(Cl)c1 [DATU8, N-(3,4-dichlorophenyl)-N’-(4-pyridin-3-ylphenyl)thiourea] | 102000 | – | – | – |
| > 500 | > 500 | > 500 | 157 to 158 | – | FC(F)(F)c1cc(NC(=S)Nc2ccc(-c3cccnc3)cc2)cc(C(F)(F)F)c1 [DATU9, N-[3,5-bis(trifluoromethyl)phenyl]-N’-(4-pyridin-3-ylphenyl)thiourea] | 166000 | – | – | – |
| > 500 | 20.4 | > 500 | 147 to 148 | – | S=C(Nc1ccc(-c2cccnc2)cc1)Nc1ccc2c(c1)OCO2 [DATU10, N-1,3-benzodioxol-5-yl-N’-(4-pyridin-3-ylphenyl)thiourea] | 90600 | – | – | – |
| 70.5 | 194 | > 500 | – | – | O=C(Nc1ccc(-c2ccc3c(=O)[nH]cnc3c2)cc1)Nc1cccc(C(F)(F)F)c1 [QDAU1, 1-(4-(4-oxo-3,4-dihydroquinazolin-7-yl)phenyl)-3-(3-(trifluoromethyl)phenyl)urea] | 57900 | – | – | – |
| 83.9 | 57.9 | > 500 | > 300 | – | O=C(Nc1ccc(-c2ccc3c(=O)[nH]cnc3c2)cc1)Nc1cccc(Cl)c1 [QDAU2, 1-(3-chlorophenyl)-3-(4-(4-oxo-3,4-dihydroquinazolin-7-yl)phenyl)urea] | 66300 | – | – | – |
| 90.7 | > 500 | 5.64 | > 300 | – | O=C(Nc1ccc(-c2ccc3c(=O)[nH]cnc3c2)cc1)Nc1cccc(F)c1 [QDAU3, 1-(3-fluorophenyl)-3-(4-(4-oxo-3,4-dihydroquinazolin-7-yl)phenyl)ure] | 42600 | – | – | – |
| 101 | 6.28 | > 500 | > 300 | – | O=C(Nc1ccc(F)cc1)Nc1ccc(-c2ccc3c(=O)[nH]cnc3c2)cc1 [QDAU6, 1-(4-fluorophenyl)-3-(4-(4-oxo-3,4-dihydroquinazolin-7-yl)phenyl)urea] | 255000 | – | – | – |
| 258 | > 500 | > 500 | > 300 | – | O=C(Nc1ccc(OC(F)(F)F)cc1)Nc1ccc(-c2ccc3c(=O)[nH]cnc3c2)cc1 [QDAU7, 1-(4-(4-oxo-3,4-dihydroquinazolin-7-yl)phenyl)-3-(4-(trifluoromethoxy)phenyl)urea] | 68500 | – | – | – |
| > 500 | 41.5 | > 500 | > 300 | – | CC(C)c1cccc(NC(=O)Nc2ccc(-c3ccc4c(=O)[nH]cnc4c3)cc2)c1 [QDAU8, 1-(3-isopropylphenyl)-3-(4-(4-oxo-3,4-dihydroquinazolin-7-yl)phenyl)urea] | 76200 | – | – | – |
| 19.6 | 15.8 | 24.4 | > 300 | – | O=C(Nc1ccc(-c2ccc3c(=O)[nH]cnc3c2)cc1)Nc1ccc(Cl)c(C(F)(F)F)c1 [QDAU9, 1-(4-chloro-3-(trifluoromethyl)phenyl)-3-(4-(4-oxo-3,4-dihydroquinazolin-7-yl)phenyl)urea] | 13000 | – | – | – |
| 52.7 | 50.7 | > 500 | > 300 | – | O=C(Nc1ccc(-c2ccc3c(=O)[nH]cnc3c2)cc1)Nc1ccc(C(F)(F)F)cc1 [QDAU10, 1-(4-(4-oxo-3,4-dihydroquinazolin-7-yl)phenyl)-3-(4-(trifluoromethyl)phenyl)urea] | 125000 | – | – | – |
| – | – | – | – | – | CNC(=O)c1cc(Oc2ccc(NC(=O)Nc3ccc(Cl)c(C(F)(F)F)c3)cc2)ccn1 [Sorafenib, sorafenib, reference compound] | – | 16.8 ± 0.9 | 53 | 0.398 ± 0.8 |
| – | – | – | – | 11 min and 10.6 min | CNC(=O)c1cc(Oc2ccc(NC(=O)Nc3ccc(Cl)c(C(F)(F)F)c3)c(F)c2)ccn1 [regorafenib, reference compound] | – | – | – | – |
